pIC50: −log10 of the molar value. Several values for one entry are separate records, joined by “and”; a condition that tells them apart may be missing. Identical values can stand only once. Like-named read-outs stand apart in the source and are kept apart here.
Key:
PDE5A = biological target: T1, PDE5A (Homo sapiens, UniProt O76074); assay: Inhibition against PDE5 (Homogenous Time Resolve Fluoresce); type: biochemical; conditions: HTF
T1 construct: purchased SIGMA-ALDRICH E904
Experimental: Method: IC50 of an inhibition effect on PDE5A (E904, SIGMA-ALDRICH) of test compounds was tested by using Sildenafil (S1431, selleck) as a positive control sample and the method of Homogenous Time Resolve Fluoresce, HTF (Cat. No. 62GM2PEB, Cisbio.)

[1] = Study on pharmacokinetics in rats, oral administration; type: in vivo, SD rat
Experimental: Sample Preparation Method: One step protein precipitation
Precipitant: ACN, with concentration of Verapamil (5.00 ng·mL-1)
Calibration Curve and QC samples Preparation: 5.00 μL each of the calibration or QC working solution and 45.0 μL of blank plasma were transferred into a 1.5-mL microcentrifuge tube. Final standard curve concentration levels were 1.00, 2.50, 5.00, 10.0, 50.0, 100, 500 and 1000 ng·mL-1. The QC concentration levels were 2.50 or 5.00, 50.0 and 800 ng·mL-1. Dilution QC was 5000 ng·mL-1.
Plasma Samples Preparation: Aliquots of 10.0 μL of real samples, calibration curve samples and QC samples were supplemented with 100 μL of precipitant. After vortexed for 3.00 min and centrifuged at 12000 rpm for 5.00 min, the supernatant 10 μL was injected for LC-MS/MS analysis.
Number of Rats/Group: 3/group
Administration Route: oral administration
Blood Collection Time: 0 min, 15 min, 30 min, 1 h, 2 h, 4 h, 6 h, 8 h, 24 h

normal rat = assay: Erectile function of normal rat: blood pressure, intracavernous pressure and detumescence time on cavernous nerve stimulation; type: in vivo
Experimental: Rats were anesthetized with 2% pentobarbital […], then incision was made in the right side of neck, a PE-50 silicon tube connected with a pressure transducer was inserted into the carotid artery, to record the change of the blood pressure.
The erectile activity was induced by a bipolar stainless-steel, stimulus parameters at a pulse width of […], stimulation frequency of 7.98 Hz, current of 3 mA, stimulation duration of 40 s, and then record the intracavernous pressure (ICP).
Assessment of erectile function: ICP, BP, change of ICP and detumescence time were monitored though electric cavernous nerve stimulation at 2, 6 and 24 hours post dosing. Erectile function was evaluated by change of ICP and detumescence time.

PDE11A = biological target: T2, PDE11A (Homo sapiens, UniProt Q9HCR9); assay: Inhibition of PDE activity (assay kit); type: biochemical
T2 construct: purchased
T2 sequence (Q9HCR9 whole entry): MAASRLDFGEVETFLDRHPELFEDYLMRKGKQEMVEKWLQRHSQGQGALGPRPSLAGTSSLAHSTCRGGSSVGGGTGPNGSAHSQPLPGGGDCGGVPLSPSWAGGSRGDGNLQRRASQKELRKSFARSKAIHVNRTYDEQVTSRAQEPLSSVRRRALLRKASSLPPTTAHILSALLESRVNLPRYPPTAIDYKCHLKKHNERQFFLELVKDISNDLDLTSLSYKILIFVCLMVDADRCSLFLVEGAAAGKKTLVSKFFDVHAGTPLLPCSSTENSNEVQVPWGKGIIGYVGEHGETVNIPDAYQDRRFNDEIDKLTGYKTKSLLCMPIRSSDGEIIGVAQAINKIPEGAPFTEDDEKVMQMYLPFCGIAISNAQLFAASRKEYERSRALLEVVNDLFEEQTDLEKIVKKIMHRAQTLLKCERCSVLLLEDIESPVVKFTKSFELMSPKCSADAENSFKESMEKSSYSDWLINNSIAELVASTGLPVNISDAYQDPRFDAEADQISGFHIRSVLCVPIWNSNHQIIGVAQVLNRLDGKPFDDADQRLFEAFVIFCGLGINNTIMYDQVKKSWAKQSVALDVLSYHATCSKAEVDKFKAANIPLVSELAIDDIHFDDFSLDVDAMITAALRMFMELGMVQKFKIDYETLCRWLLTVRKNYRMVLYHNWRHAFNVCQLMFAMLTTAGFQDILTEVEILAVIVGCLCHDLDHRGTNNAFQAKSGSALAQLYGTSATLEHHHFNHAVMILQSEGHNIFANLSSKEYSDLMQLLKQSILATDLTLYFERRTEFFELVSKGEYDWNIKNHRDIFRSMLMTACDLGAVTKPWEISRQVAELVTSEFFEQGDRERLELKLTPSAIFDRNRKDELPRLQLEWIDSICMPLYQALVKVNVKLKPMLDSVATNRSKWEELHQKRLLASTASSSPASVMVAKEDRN
Experimental: (§1) i. Supplement 99 μl assay buffer per well, then add 1 μl compound in DMSO dilution to wells of V96 MicroWell Plates and uniformly mix;
(§2) ii. Add 5 μl compound in assay buffer dilution to each well of 96-well microplate;
(§3) the final concentration of compound as below:
(§4) The inhibitory potential of test compounds on several types of phosphodiesterase (PDE) activity is determined according to the protocol of assay kit.

PDE1A = biological target: T3, PDE1A (Homo sapiens, UniProt P54750); assay: Inhibition of PDE activity (assay kit); type: biochemical
T3 construct: purchased
T3 sequence (P54750 whole entry): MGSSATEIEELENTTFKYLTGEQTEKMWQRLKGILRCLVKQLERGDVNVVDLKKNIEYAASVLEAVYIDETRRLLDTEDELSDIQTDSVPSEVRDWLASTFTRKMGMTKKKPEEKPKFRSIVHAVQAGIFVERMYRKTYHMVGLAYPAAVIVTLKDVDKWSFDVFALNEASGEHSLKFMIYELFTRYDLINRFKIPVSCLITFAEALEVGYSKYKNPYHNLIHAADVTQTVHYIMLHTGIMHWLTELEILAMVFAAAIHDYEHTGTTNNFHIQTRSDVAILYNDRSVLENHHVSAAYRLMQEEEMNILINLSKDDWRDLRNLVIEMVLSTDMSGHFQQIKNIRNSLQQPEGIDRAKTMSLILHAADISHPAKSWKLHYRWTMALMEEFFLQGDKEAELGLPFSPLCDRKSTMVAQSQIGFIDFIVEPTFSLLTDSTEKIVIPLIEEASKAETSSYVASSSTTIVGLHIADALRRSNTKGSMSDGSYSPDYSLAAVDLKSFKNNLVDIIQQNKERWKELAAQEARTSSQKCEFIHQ
Experimental: as §1, §2, §3, §4

PDE2A = biological target: T4, PDE2A (Homo sapiens, UniProt O00408); assay: Inhibition of PDE activity (assay kit); type: biochemical
T4 construct: purchased
T4 sequence (O00408 whole entry): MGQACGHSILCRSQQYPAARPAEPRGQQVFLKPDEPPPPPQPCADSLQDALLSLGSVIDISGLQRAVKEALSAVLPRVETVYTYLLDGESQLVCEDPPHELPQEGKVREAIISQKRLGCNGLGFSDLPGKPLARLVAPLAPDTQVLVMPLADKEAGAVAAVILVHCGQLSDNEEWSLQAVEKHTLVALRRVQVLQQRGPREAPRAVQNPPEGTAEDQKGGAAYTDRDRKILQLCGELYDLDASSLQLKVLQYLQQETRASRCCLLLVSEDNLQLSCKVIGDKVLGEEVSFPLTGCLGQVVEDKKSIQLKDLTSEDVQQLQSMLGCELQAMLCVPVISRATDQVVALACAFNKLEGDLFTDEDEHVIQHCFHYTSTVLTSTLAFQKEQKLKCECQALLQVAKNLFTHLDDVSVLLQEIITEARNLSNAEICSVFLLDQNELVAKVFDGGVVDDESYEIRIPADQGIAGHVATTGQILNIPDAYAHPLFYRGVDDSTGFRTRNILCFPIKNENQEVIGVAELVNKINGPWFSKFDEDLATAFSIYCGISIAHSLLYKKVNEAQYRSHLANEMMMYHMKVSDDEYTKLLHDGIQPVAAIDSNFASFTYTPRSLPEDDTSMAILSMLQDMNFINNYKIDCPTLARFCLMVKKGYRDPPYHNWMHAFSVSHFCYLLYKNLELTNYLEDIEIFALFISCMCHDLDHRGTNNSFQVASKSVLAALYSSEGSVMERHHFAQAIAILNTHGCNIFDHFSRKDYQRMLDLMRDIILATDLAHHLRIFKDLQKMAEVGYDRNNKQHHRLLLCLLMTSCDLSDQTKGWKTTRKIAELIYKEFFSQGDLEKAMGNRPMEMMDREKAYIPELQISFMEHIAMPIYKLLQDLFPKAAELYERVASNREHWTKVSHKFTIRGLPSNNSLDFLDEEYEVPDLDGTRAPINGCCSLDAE
Experimental: as §1, §2, §3, §4

PDE3A = biological target: T5, PDE3A (Homo sapiens, UniProt Q14432); assay: Inhibition of PDE activity (assay kit); type: biochemical
T5 construct: purchased
T5 sequence (Q14432 whole entry): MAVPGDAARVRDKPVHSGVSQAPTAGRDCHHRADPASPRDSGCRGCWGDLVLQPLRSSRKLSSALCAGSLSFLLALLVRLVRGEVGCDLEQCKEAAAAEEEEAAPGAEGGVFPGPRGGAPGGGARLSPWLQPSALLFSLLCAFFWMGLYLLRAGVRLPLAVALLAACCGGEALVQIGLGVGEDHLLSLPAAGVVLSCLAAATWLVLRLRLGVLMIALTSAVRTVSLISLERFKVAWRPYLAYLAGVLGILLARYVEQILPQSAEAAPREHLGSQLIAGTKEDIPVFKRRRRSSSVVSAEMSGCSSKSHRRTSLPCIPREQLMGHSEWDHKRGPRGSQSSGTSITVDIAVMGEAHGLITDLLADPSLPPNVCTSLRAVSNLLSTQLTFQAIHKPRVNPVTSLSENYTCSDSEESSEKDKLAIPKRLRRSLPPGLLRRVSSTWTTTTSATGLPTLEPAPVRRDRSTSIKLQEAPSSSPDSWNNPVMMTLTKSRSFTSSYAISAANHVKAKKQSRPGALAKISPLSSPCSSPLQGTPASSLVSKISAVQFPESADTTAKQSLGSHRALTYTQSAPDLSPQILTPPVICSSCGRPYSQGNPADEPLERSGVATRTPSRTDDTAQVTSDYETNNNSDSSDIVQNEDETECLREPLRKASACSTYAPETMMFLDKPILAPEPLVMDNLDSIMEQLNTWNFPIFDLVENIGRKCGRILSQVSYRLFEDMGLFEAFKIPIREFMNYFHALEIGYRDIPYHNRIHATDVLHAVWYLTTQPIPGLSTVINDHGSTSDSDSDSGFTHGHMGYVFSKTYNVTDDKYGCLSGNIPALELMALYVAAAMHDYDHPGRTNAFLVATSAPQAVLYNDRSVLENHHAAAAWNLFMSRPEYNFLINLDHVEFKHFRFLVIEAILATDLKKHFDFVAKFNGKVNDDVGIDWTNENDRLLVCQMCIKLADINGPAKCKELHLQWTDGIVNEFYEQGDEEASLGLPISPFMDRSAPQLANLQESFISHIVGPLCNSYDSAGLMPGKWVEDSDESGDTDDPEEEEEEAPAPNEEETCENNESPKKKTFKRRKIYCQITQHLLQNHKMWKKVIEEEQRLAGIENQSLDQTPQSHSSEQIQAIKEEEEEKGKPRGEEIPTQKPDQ
Experimental: as §1, §2, §3, §4

PDE4A = biological target: T6, PDE4A (Homo sapiens, UniProt P27815); assay: Inhibition of PDE activity (assay kit); type: biochemical
T6 construct: purchased
T6 sequence (P27815 1-647 isoform P27815-4): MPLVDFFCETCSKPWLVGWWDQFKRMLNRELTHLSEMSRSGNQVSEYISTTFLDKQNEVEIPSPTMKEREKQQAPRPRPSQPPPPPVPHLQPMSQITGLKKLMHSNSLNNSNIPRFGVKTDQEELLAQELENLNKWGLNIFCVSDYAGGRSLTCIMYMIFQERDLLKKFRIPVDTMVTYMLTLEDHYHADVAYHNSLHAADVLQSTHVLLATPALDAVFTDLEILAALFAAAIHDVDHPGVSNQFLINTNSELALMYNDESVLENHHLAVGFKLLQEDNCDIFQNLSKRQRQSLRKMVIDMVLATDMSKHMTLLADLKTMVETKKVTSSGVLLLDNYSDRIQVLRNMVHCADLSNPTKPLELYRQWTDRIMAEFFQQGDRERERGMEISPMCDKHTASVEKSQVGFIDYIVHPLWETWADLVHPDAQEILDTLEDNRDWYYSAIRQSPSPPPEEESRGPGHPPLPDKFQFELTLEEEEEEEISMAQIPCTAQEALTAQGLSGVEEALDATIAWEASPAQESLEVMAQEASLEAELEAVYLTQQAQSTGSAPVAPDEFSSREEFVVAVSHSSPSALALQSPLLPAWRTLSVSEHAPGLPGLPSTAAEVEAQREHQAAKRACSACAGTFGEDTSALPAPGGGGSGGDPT
Experimental: as §1, §2, §3, §4

PDE6C = biological target: T7, PDE6C (Homo sapiens, UniProt P51160); assay: Inhibition of PDE activity (assay kit); type: biochemical
T7 construct: purchased
Experimental: as §1, §2, §3, §4

PDE7A = biological target: T8, PDE7A (Homo sapiens, UniProt Q13946); assay: Inhibition of PDE activity (assay kit); type: biochemical
T8 construct: purchased
T8 sequence (Q13946 whole entry): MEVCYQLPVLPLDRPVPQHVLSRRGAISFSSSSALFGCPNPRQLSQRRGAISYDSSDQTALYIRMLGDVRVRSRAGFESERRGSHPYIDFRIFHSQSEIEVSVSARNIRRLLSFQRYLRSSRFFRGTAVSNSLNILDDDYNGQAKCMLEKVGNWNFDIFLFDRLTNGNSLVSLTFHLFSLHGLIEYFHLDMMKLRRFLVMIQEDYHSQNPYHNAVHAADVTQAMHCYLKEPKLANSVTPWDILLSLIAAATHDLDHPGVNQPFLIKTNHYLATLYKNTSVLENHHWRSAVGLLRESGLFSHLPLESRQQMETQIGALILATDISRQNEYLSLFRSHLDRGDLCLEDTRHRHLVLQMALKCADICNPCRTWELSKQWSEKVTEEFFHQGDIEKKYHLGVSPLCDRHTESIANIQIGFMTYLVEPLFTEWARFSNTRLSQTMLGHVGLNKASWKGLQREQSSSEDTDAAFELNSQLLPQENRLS
Experimental: as §1, §2, §3, §4

[2] = Mean of 3 rats, oral 10.0 mg · kg^−1
[3] = individual rats, oral 10.0 mg · kg^−1
[4] = 2 hours after dosing, High dose
[5] = 2 hours after dosing, Middle dose
[6] = 6 hours after dosing, High dose
[7] = 6 hours after dosing, Middle dose
[8] = 24 hours after dosing, High dose
[9] = 24 hours after dosing, Low dose
[10] = 24 hours after dosing, Middle dose

[2H]C1([2H])Oc2ccc([C@@H]3c4[nH]c5ccccc5c4C[C@@H]4C(=O)N(N)CC(=O)N34)cc2O1 [DDCI-01, (6R,12aR)-2-amino-6-(benzo[d][1,3]dioxol-5-yl-2,2-d2)-2,3,6,7,12,12a-hexahydropyrazino[1′,2′:1,6]pyrido[3,4-b]indole-1,4-dione]
pIC50 (PDE5A): 7.47 | AUMC0-inf [1, 2]: 50280 h · h · ng · mL^−1 | AUMC0-t [1, 2]: 49982 h · h · ng · mL^−1 | Kel [1, 2]: 0.305 h⁻¹ | MRTPO [1, 2]: 4.68 h | half-life (T1/2), comparison in words ([1]; SD rat, oral, compared with Cialis and DDCI02): slightly shorter than that of Cialis and significantly shorter than that of DDCI02 | half-life ([1]; SD, rat, plasma, po, 10 mg/kg, Mean of 3 rats, oral 10.0 mg · kg^−1): 2.29 h | AUC0-inf ([1]; SD, rat, plasma, po, 10 mg/kg, Mean of 3 rats, oral 10.0 mg · kg^−1, read-out: AUC0-inf): 10800 ng·h/mL | AUC0-t ([1]; SD, rat, plasma, po, 10 mg/kg, Mean of 3 rats, oral 10.0 mg · kg^−1, read-out: AUC0-t): 10800 ng·h/mL | Cmax ([1]; SD, rat, plasma, po, 10 mg/kg, Mean of 3 rats, oral 10.0 mg · kg^−1, read-out: Cmax): 1470 ng/mL | half-life ([1]; SD, rat, plasma, po, 10 mg/kg, individual rats, oral 10.0 mg · kg^−1): 2.12 h | AUC0-inf ([1]; SD, rat, plasma, po, 10 mg/kg, individual rats, oral 10.0 mg · kg^−1, read-out: AUC0-inf): 9980 ng·h/mL | AUC0-t ([1]; SD, rat, plasma, po, 10 mg/kg, individual rats, oral 10.0 mg · kg^−1, read-out: AUC0-t): 9970 ng·h/mL | Cmax ([1]; SD, rat, plasma, po, 10 mg/kg, individual rats, oral 10.0 mg · kg^−1, read-out: Cmax): 1300 ng/mL | Tmax ([1]; SD, rat, plasma, individual rats, oral 10.0 mg · kg^−1): 2 h | AUC0-inf [1, 3]: 11221 ng·h/mL and 11087 ng·h/mL | AUC0-t [1, 3]: 11202 ng·h/mL and 11080 ng·h/mL | AUMC0-inf [1, 3]: 48665 h · h · ng · mL^−1 and 51065 h · h · ng · mL^−1 and 51110 h · h · ng · mL^−1 | AUMC0-t [1, 3]: 48497 h · h · ng · mL^−1 and 50539 h · h · ng · mL^−1 and 50911 h · h · ng · mL^−1 | Cmax [1, 3]: 1574 ng/mL and 1528 ng/mL | Kel [1, 3]: 0.327 h⁻¹ and 0.269 h⁻¹ and 0.319 h⁻¹ | MRTPO [1, 3]: 4.88 h and 4.55 h and 4.61 h | t1/2 [1, 3]: 2.58 h and 2.17 h | Cmax and Auc, comparison in words ([1]; rat, oral, compared with Cialis): more excellent than those of Cialis | BP after stimulation (normal rat; [4]): 60.97 ± 19.95 mmHg | BP before stimulation (normal rat; [4]): 91.86 ± 21.57 mmHg | Change of BP (normal rat; [4]): 30.89 ± 4.09 mmHg | Change of ICP (normal rat; [4]): 41.20 ± 9.83 mmHg | Detumescence Time (normal rat; [4]): 101.00 ± 21.56 s | ICP after stimulation (normal rat; [4]): 52.25 ± 9.49 mmHg | ICP before stimulation (normal rat; [4]): 11.05 ± 3.25 mmHg | BP after stimulation (normal rat; 2 hours after dosing, Low dose): 63.89 ± 2.93 mmHg | BP before stimulation (normal rat; 2 hours after dosing, Low dose): 97.43 ± 11.45 mmHg | Change of BP (normal rat; 2 hours after dosing, Low dose): 33.54 ± 13.57 mmHg | Change of ICP (normal rat; 2 hours after dosing, Low dose): 31.38 ± 3.09 mmHg | Detumescence Time (normal rat; 2 hours after dosing, Low dose): 38.00 ± 10.42 s | ICP after stimulation (normal rat; 2 hours after dosing, Low dose): 42.86 ± 5.14 mmHg | ICP before stimulation (normal rat; 2 hours after dosing, Low dose): 11.48 ± 4.57 mmHg | BP after stimulation (normal rat; [5]): 70.38 ± 7.82 mmHg | BP before stimulation (normal rat; [5]): 96.49 ± 7.55 mmHg | Change of BP (normal rat; [5]): 26.12 ± 3.04 mmHg | Change of ICP (normal rat; [5]): 33.09 ± 7.46 mmHg | Detumescence Time (normal rat; [5]): 40.75 ± 4.79 s | ICP after stimulation (normal rat; [5]): 41.58 ± 7.94 mmHg | ICP before stimulation (normal rat; [5]): 8.49 ± 2.06 mmHg | BP after stimulation (normal rat; [6]): 50.09 ± 22.36 mmHg | BP before stimulation (normal rat; [6]): 76.38 ± 21.11 mmHg | Change of BP (normal rat; [6]): 26.29 ± 1.54 mmHg | Change of ICP (normal rat; [6]): 41.74 ± 7.92 mmHg | Detumescence Time (normal rat; [6]): 64.00 ± 19.37 s | ICP after stimulation (normal rat; [6]): 50.94 ± 11.12 mmHg | ICP before stimulation (normal rat; [6]): 9.20 ± 8.79 mmHg | BP after stimulation (normal rat; 6 hours after dosing, Low dose): 61.78 ± 17.93 mmHg | BP before stimulation (normal rat; 6 hours after dosing, Low dose): 95.73 ± 18.25 mmHg | Change of BP (normal rat; 6 hours after dosing, Low dose): 33.95 ± 3.20 mmHg | Change of ICP (normal rat; 6 hours after dosing, Low dose): 31.38 ± 7.73 mmHg | Detumescence Time (normal rat; 6 hours after dosing, Low dose): 47.75 ± 11.79 s | ICP after stimulation (normal rat; 6 hours after dosing, Low dose): 40.36 ± 5.92 mmHg | ICP before stimulation (normal rat; 6 hours after dosing, Low dose): 8.98 ± 3.06 mmHg | BP after stimulation (normal rat; [7]): 61.03 ± 12.64 mmHg | BP before stimulation (normal rat; [7]): 92.91 ± 19.51 mmHg | Change of BP (normal rat; [7]): 31.88 ± 7.39 mmHg | Change of ICP (normal rat; [7]): 33.49 ± 8.09 mmHg | Detumescence Time (normal rat; [7]): 48.00 ± 23.85 s | ICP after stimulation (normal rat; [7]): 40.21 ± 8.37 mmHg | ICP before stimulation (normal rat; [7]): 6.72 ± 3.14 mmHg | BP after stimulation (normal rat; [8]): 52.95 ± 14.12 mmHg | BP before stimulation (normal rat; [8]): 94.16 ± 9.79 mmHg | Change of BP (normal rat; [8]): 41.21 ± 11.98 mmHg | Change of ICP (normal rat; [8]): 43.36 ± 4.90 mmHg | Detumescence Time (normal rat; [8]): 60.75 ± 24.14 s | ICP after stimulation (normal rat; [8]): 52.77 ± 2.07 mmHg | ICP before stimulation (normal rat; [8]): 9.41 ± 3.81 mmHg | BP after stimulation (normal rat; [9]): 72.34 ± 12.33 mmHg | BP before stimulation (normal rat; [9]): 108.36 ± 8.89 mmHg | Change of BP (normal rat; [9]): 36.03 ± 10.90 mmHg | Change of ICP (normal rat; [9]): 30.65 ± 0.98 mmHg | Detumescence Time (normal rat; [9]): 23.75 ± 12.84 s | ICP after stimulation (normal rat; [9]): 43.55 ± 5.05 mmHg | ICP before stimulation (normal rat; [9]): 12.91 ± 5.02 mmHg | BP after stimulation (normal rat; [10]): 69.85 ± 12.70 mmHg | BP before stimulation (normal rat; [10]): 102.18 ± 15.12 mmHg | Change of BP (normal rat; [10]): 32.33 ± 8.76 mmHg | Change of ICP (normal rat; [10]): 31.58 ± 5.75 mmHg | Detumescence Time (normal rat; [10]): 41.25 ± 14.50 s | ICP after stimulation (normal rat; [10]): 40.00 ± 5.56 mmHg | ICP before stimulation (normal rat; [10]): 8.41 ± 1.86 mmHg | erectile function of the normal rat model, result in words (normal rat; high, middle, and low doses, Tables 1-9): significantly improved the erectile function | pIC50 (PDE11A): 5.59 and 5.58 | pIC50 (PDE1A): < 5.00 | inhibition at 10 µM (PDE1A; at 10 μM): 0% | pIC50 (PDE2A): < 5.00 | inhibition at 10 µM (PDE2A; at 10 μM): 0% | pIC50 (PDE3A): < 5.00 | inhibition at 10 µM (PDE3A; at 10 μM): 0% | pIC50 (PDE4A; PDE4A): < 5.00 | inhibition at 10 µM (PDE4A; PDE4A1A, at 10 μM): 0% | pIC50 (PDE6C): 4.83 | pIC50 (PDE7A): < 5.00 | inhibition at 10 µM (PDE7A; at 10 μM): 0%

Source: US9920057B2, “Substituted pyrazino[1′,2′:1 ,6]pyrido[3,4-b]indoles as phosphodiesterase type 5 inhibitors” (Chongqing University of Arts and Sciences, priority 2015, dated 2018)
